Test results taken from paper PMC5329948, “Caspase vinyl sulfone small molecule inhibitors prevent axonal degeneration in human neurons and reverse cognitive impairment in Caspase-6-overexpressing mice” (Molecular Neurodegeneration, 2017).

How the values were obtained:
Format in all cases: biochemical
recombinant Caspase-1 = target: T1, recombinant Caspase-1 (Homo sapiens, UniProt P29466); experiment: Caspase Inhibitor Drug Screening Kit (BioVision), WAD-AFC substrate; details: not active site titrated
T1 construct: purchased BioVision
Procedure: (§1) The half-maximal inhibitory concentrations (IC50) for NWL inhibitors (Patent publication # WO/2009/140765, WO/2010/133000, and WO/2012/140500) was determined by incubating 0 to 20 μM NWL-117 and NWL-154 with 20 nM of active site-titrated Casp6 in SB at room temperature for 5 minutes. Then, 10 μM Ac-VEID-AFC was added and fluorescence measured for 20 min at 37 °C as described above. New World Laboratories performed the IC50 determination for NWL inhibitors dissolved in dimethyl sulfoxide (DMSO) against recombinant Casp1-10 using the Caspase Inhibitor Drug Screening Kits (BioVision, San Francisco, CA) following the manufacturer’s instructions and the preferred substrates for the caspases (Caspase-1: WAD-AFC, Caspase-2: VDVAD-AFC, Caspase-3: DEVD-AFC, Caspase-4: LEVD-AFC, Caspase-5: WEHD-AFC, Casp6:VEID-AFC, Caspase-7: DEVD-AFC, Caspase-8: IETD-AFC, Caspase-9: LEHD-AFC, Caspase-10: AEVD-AFC). In transfected HCT116 cells, 0 to 100 μM NWL inhibitors were added in the culture media and left on the cells for 2 h. Cells were washed once with 1 mL ice-cold PBS, incubated on ice for 5 min with 200 μL cell lysis buffer (CLB) (50 mM HEPES, 0.1% CHAPS, 0.1 mM EDTA), and gently scraped off. Protein concentrations were determined by Bradford assay (BioRad, Mississauga, ON, CA) by measuring the absorbance at 595 nm using the BioTek Synergy H4 plate reader. […]

[1] = target: T2, recombinant active site-titrated Casp6 (Homo sapiens, UniProt P55212); experiment: IC50 on in-house recombinant active site-titrated Casp6 (Ac-VEID-AFC fluorogenic assay); details: 20 nM Casp6, 5 min preincubation at room temperature, 10 μM Ac-VEID-AFC; read-out: IC50 against recombinant active site-titrated Casp6
T2 construct: human Casp6 large subunit (amino acids 24-179, flanked by start (ATG) and stop (TAA) codons); small subunit (amino acids 194-293, preceded by a start codon); initiator Met (added start codon) (N); His; made in house; host or cells: E. coli BL21(DE3)pLysS
Procedure: Recombinant Casp6 Expression and purification: Casp6 was expressed from the pET23b(+)-Casp6-His plasmid in E. coli BL21(DE3)pLysS strain (Promega, Fitchburg, WI, USA) at 37 °C in 2xYT medium (16 g/l tryptone, 10 g/l yeast extract, 5 g/l NaCl) supplemented with 0.1 mg/ml ampicillin and 0.034 mg/ml chloramphenicol under vigorous shaking according to [46]. Casp6 expression was induced with 50 μM isopropyl β-D-1-thiogalactopyranoside (IPTG) when cell cultures reached OD595 nm of 0.6 and cells cultured at 22 °C for 16 h under vigorous shaking. […] The lysate was clarified by centrifugation (30,000 x g for 30 min at 4 °C) and loaded on Ni Sepharose Fast Flow 6 medium (GE Healthcare Life Sciences, Baie D’Urfe, QC, CA) pre-equilibrated with buffer A, washed with buffer B (50 mM Tris pH 8.5, 500 mM NaCl, 5% glycerol, 20 mM imidazole), and bound proteins eluted with a 50-300 mM linear imidazole gradient in buffer A. Fractions were assessed for recombinant Casp6 purity by SDS-PAGE and Coomassie blue staining. […] Protein concentration was measured using Quick Start Bradford 1x Dye Reagent (Bio-Rad Laboratories, Hercules, CA, USA). Active site titration assay: The concentration of Casp6 active sites was determined by active site titration assay using Z-VAD-fmk (N-benzyloxycarbonyl-Val-Ala-Asp-(O-methyl)-fluoromethylketone, MP Biomedicals, Santa Ana, CA, USA) inhibitor [46]. […]

recombinant Caspase-8 = target: T3, recombinant Caspase-8 (Homo sapiens, UniProt Q14790); experiment: Caspase Inhibitor Drug Screening Kit (BioVision), IETD-AFC substrate; details: not active site titrated
T3 construct: purchased BioVision
Procedure: as §1

T3 sequence (Q14790 217-479): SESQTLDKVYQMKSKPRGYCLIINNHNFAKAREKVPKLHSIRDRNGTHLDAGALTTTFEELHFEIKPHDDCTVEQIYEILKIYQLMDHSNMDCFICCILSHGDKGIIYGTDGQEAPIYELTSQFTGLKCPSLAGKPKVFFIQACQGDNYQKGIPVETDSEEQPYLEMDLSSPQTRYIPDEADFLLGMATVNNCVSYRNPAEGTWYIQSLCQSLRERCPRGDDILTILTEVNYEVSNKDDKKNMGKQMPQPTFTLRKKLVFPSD
T1 sequence (P29466 120-404): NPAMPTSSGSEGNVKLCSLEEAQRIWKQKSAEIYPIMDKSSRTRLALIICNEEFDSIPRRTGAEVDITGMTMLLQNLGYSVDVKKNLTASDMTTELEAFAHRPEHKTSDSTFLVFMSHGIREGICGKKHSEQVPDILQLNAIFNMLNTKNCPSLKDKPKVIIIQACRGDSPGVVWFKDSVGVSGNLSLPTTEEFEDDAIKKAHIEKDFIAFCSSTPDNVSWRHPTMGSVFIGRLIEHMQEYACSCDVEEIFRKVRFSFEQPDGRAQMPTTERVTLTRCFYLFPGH
T2 sequence (P55212 24-179): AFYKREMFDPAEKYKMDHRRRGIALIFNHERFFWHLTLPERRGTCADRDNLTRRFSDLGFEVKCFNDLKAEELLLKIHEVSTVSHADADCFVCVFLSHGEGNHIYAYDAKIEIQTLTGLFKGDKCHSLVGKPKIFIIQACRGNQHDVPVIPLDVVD
T2 sequence (P55212 194-293): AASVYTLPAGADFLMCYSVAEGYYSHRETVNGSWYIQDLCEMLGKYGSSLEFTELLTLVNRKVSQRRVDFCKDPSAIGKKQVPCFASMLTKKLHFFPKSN

SMILES | IC50 (recombinant Caspase-1) | IC50 [1] | IC50 (recombinant Caspase-8)
CCC(C)[C@H](NC(=O)[C@H](CCC(=O)O)NC(=O)[C@@H](NC(=O)OCc1ccccc1)C(C)C)C(=O)N[C@H](/C=C/S(C)(=O)=O)CC(=O)O (stereo partly drawn) [NWL-117] | 2.7 µM | 0.192 µM | 0.66 µM
CCC(C)[C@H](NC(=O)[C@H](CCC(=O)O)NC(=O)[C@@H](NC(=O)OCc1ccccc1)C(C)C)C(=O)N[C@H](/C=C(\Cl)S(C)(=O)=O)CC(=O)O (stereo partly drawn) [NWL-154] | 3.85 µM | 0.1 µM | 0.53 µM
